In brackets after ≈: the same amount, converted by molar mass. Activity calls are given as the source filed them. The calls are words filed in the database; no cut-off is given here.
Experiments:
[1] = test system: Staphylococcus aureus; assay: Antimicrobial activity against Staphylococcus aureus 168-1 isolated from osteomyelitis patient by broth macrodilution method; format: functional
[2] = Cmax in New Zealand rabbit at 20 mg/kg, sc administered every 6 hrs for 4 days measured after 1 hr post first dose by RP-HPLC/MS/MS; format: ADME, organism-based, Oryctolagus cuniculus; parameters: dose 20 mg/kg, route subcutaneous; conditions: in vivo
[3] = Cmin in New Zealand rabbit at 20 mg/kg, sc administered every 6 hrs for 4 days measured after 1 hr post first dose by RP-HPLC/MS/MS; format: ADME, organism-based, Oryctolagus cuniculus; parameters: dose 20 mg/kg, route subcutaneous; conditions: New Zealand, in vivo, read-out: Cmin
[4] = AUC in New Zealand rabbit at 20 mg/kg, sc administered every 6 hrs for 4 days measured after 1 hr post first dose by RP-HPLC/MS/MS; format: ADME, organism-based, Oryctolagus cuniculus; parameters: time < 1 hr, dose 20 mg/kg, route subcutaneous; conditions: plasma
[5] = Cmax in New Zealand rabbit at 80 mg/kg, sc administered every 6 hrs for 4 days measured after 1 hr post first dose by RP-HPLC/MS/MS; format: ADME, organism-based, Oryctolagus cuniculus; parameters: dose 80 mg/kg, route subcutaneous; conditions: in vivo
[6] = AUC in New Zealand rabbit at 80 mg/kg, sc administered every 6 hrs for 4 days measured after 1 hr post first dose by RP-HPLC/MS/MS; format: ADME, organism-based, Oryctolagus cuniculus; parameters: time < 1 hr, dose 80 mg/kg, route subcutaneous; conditions: plasma
[7] = Cmax in New Zealand rabbit at 20 mg/kg, sc administered every 6 hrs for 4 days measured 16th dose by RP-HPLC/MS/MS; format: ADME, organism-based, Oryctolagus cuniculus; parameters: dose 20 mg/kg, route subcutaneous; conditions: in vivo
[8] = Cmax in New Zealand rabbit at 80 mg/kg, sc administered every 6 hrs for 4 days measured 16th dose by RP-HPLC/MS/MS; format: ADME, organism-based, Oryctolagus cuniculus; parameters: dose 80 mg/kg, route subcutaneous; conditions: in vivo
[9] = test system: Oryctolagus cuniculus; assay: Toxicity in methicillin-resistant Staphylococcus aureus-infected New Zealand rabbit osteomyelitis model assessed as body weight at 40 mg/kg, sc administered every 6 hrs for 4 days measured on week 2 postinfection (reference value: […] +/- […] kg); format: organism-based; conditions: in vivo
[10] = test system: Oryctolagus cuniculus; assay: Toxicity in methicillin-resistant Staphylococcus aureus-infected New Zealand rabbit osteomyelitis model assessed as body weight at 40 mg/kg, sc administered every 6 hrs for 4 days measured on week 4 postinfection (reference value: […] +/- […] kg); format: organism-based; conditions: in vivo
[11] = test system: Oryctolagus cuniculus; assay: Toxicity in methicillin-resistant Staphylococcus aureus-infected New Zealand rabbit osteomyelitis model assessed as body weight at 40 mg/kg, sc administered every 6 hrs for 4 days measured on week 6 postinfection (reference value: […] +/- […] kg); format: organism-based; conditions: in vivo
[12] = test system: Oryctolagus cuniculus; assay: Toxicity in methicillin-resistant Staphylococcus aureus-infected New Zealand rabbit osteomyelitis model assessed as body weight at 40 mg/kg, sc administered every 6 hrs for 4 days measured on week 8 postinfection (reference value: […] +/- […] kg); format: organism-based; conditions: in vivo
[13] = Cmax in New Zealand rabbit osteomyelitis model at 40 mg/kg, sc administered every 6 hrs for 4 days; format: ADME, organism-based, Oryctolagus cuniculus; parameters: dose 40 mg/kg, route subcutaneous; conditions: in vivo
[14] = test system: Staphylococcus aureus; assay: Antimicrobial activity against methicillin-resistant Staphylococcus aureus infected in New Zealand rabbit osteomyelitis model assessed as improvement in rate of bone reconstruction at 40 mg/kg, sc administered every 6 hrs for 4 weeks measured on week 6 postinfection by radiographic analysis; format: functional, organism-based; parameters: dose 40 mg/kg
[15] = test system: Staphylococcus aureus; assay: Antimicrobial activity against methicillin-resistant Staphylococcus aureus infected in New Zealand rabbit osteomyelitis model assessed as improvement in extent of bone remodeling at 40 mg/kg, sc administered every 6 hrs for 4 weeks measured on week 6 postinfection by radiographic analysis; format: functional, organism-based; parameters: dose 40 mg/kg
[16] = test system: Staphylococcus aureus; assay: Antimicrobial activity against methicillin-resistant Staphylococcus aureus infected in New Zealand rabbit osteomyelitis model assessed as improvement in rate of bone reconstruction at 40 mg/kg, sc administered every 6 hrs for 4 weeks measured on week 8 postinfection by radiographic analysis; format: functional, organism-based; parameters: dose 40 mg/kg
[17] = test system: Staphylococcus aureus; assay: Antimicrobial activity against methicillin-resistant Staphylococcus aureus infected in New Zealand rabbit osteomyelitis model assessed as improvement in extent of bone remodeling at 40 mg/kg, sc administered every 6 hrs for 4 weeks measured on week 8 postinfection by radiographic analysis; format: functional, organism-based; parameters: dose 40 mg/kg
[18] = AUC in human at 500 mg, infusion up to 1 hr; conditions: plasma
[19] = Cmax in human at 500 mg, infusion up to 1 hr; conditions: in vivo
[20] = Drug level in tibial marrow of New Zealand rabbit at 40 mg/kg, sc administered every 6 hrs for 1 week measured after 3 hrs post last dose; conditions: read-out: Drug uptake
[21] = Drug level in tibial matrix of New Zealand rabbit at 40 mg/kg, sc administered every 6 hrs for 1 week measured after 3 hrs post last dose; conditions: read-out: Drug uptake
[22] = Plasma concentration in New Zealand rabbit osteomyelitis model at 40 mg/kg, sc administered every 6 hrs for 1 week measured after 3 hrs post last dose
[23] = Drug level in tibial marrow of New Zealand rabbit osteomyelitis model at 40 mg/kg, sc administered every 6 hrs for 1 week measured after 3 hrs post last dose; conditions: read-out: Drug uptake
[24] = Drug level in tibial matrix of New Zealand rabbit osteomyelitis model at 40 mg/kg, sc administered every 6 hrs for 1 week measured after 3 hrs post last dose; conditions: read-out: Drug uptake
[25] = test system: Staphylococcus aureus; assay: Antimicrobial activity against methicillin-resistant Staphylococcus aureus infected in New Zealand rabbit osteomyelitis model assessed as improvement in extent of bone remodeling at 40 mg/kg, sc administered every 6 hrs for 4 weeks measured on week 2 posttreatment by radiographic analysis
[26] = test system: Staphylococcus aureus; assay: Antimicrobial activity against methicillin-resistant Staphylococcus aureus infected in New Zealand rabbit osteomyelitis model assessed as improvement in rate of bone reconstruction at 40 mg/kg, sc administered every 6 hrs for 4 weeks measured on week 2 posttreatment by radiographic analysis

**Q.** For `Nc1nc(/C(=N/O)C(=O)N[C@@H]2C(=O)N3C(C(=O)O)=C(/C=C4\CCN([C@@H]5CCNC5)C4=O)CS[C@H]23)ns1` [CEFTOBIPROLE], which MBC [1] is on record?
**A.** 6.25 µg/mL (≈ 11.7 µM)

**Q.** And the MIC [1]?
**A.** 0.39 µg/mL (≈ 0.73 µM)

**Q.** What about the Cmax [2] of the same compound?
**A.** 23800 ng/mL

**Q.** And the concentration at 1 h [3]?
**A.** 2700 ng/mL

**Q.** What about the AUC at 1 h [4] of the same compound?
**A.** 65.3 µg·h/mL

**Q.** And the Cmax [5]?
**A.** 83300 ng/mL

**Q.** And the AUC at 1 h [6]?
**A.** 215 µg·h/mL

**Q.** What about the Cmax [7] of the same compound?
**A.** 22100 ng/mL

**Q.** What about the Cmax [8] of the same compound?
**A.** 58900 ng/mL

**Q.** What about the Activity [9] of the same compound?
**A.** 2.64 kg

**Q.** And the Activity [10]?
**A.** 2.73 kg

**Q.** What about the Activity [11] of the same compound?
**A.** 2.86 kg

**Q.** What about the Activity [12] of the same compound?
**A.** 3.07 kg

**Q.** And the Cmax [13]?
**A.** 76800 ng/mL

**Q.** What about the Activity [14] of the same compound?
**A.** Active

**Q.** What about the Activity [15] of the same compound?
**A.** Active

**Q.** And the Activity [16]?
**A.** Active

**Q.** And the Activity [17]?
**A.** Active

**Q.** What about the AUC at 1 h [18] of the same compound?
**A.** 116 µg·h/mL

**Q.** What about the Cmax [19] of the same compound?
**A.** 34200 ng/mL

**Q.** What about the concentration at 3 h [20] of the same compound?
**A.** 2400 ng/g

**Q.** What about the concentration at 3 h [21] of the same compound?
**A.** 300 ng/g

**Q.** And the concentration at 3 h [22]?
**A.** 4900 ng/mL

**Q.** What about the concentration at 3 h [23] of the same compound?
**A.** 12800 ng/g

**Q.** And the concentration at 3 h [24]?
**A.** 900 ng/g

**Q.** And the Activity [25]?
**A.** Active

**Q.** What about the Activity [26] of the same compound?
**A.** Active
